Experimental data reported in patent US20250296937A1, “CYCLIC BISBENZYL TETRAHYDROISOQUINOLINE COMPOUND, AND PREPARATION METHOD THEREFOR AND USE THEREOF” (Shanghai Institute of Materia Medica, Chinesse Academy of …, priority 2021, published 2025).
“Also recorded” adds a separate entry of the source. Read-outs that look alike come from different tables or passages of the source.

Key:
[1] = test system: 2019 novel coronavirus (SARS-CoV-2) original strain; assay: Replication inhibitory activity against SARS-CoV-2 original strain in Vero E6 cells (qRT-PCR); type: cell-based; conditions: read-out: Inhibition against viral replication of the original strain EC50
[2] = target: novel coronavirus envelope protein (2-E) ion channel (Severe acute respiratory syndrome coronavirus 2, UniProt P0DTC4); assay: Novel coronavirus envelope protein (2-E) ion channel activity test, planar lipid bilayer (BLM); type: biochemical, SARS-CoV-2; conditions: room temperature, 1, 10, 50, 100 μM, read-out: Inhibition against 2-E ion channels IC50
[3] = test system: TNF-α and IL1β mRNA in A549 cells; assay: mRNA levels of injury indicators in TNF-α-induced A549 cell injury (Q-PCR); type: cell-based; conditions: 10 ng/ml TNF-α, 1 μM compound, 24 hours
Protocol: In this example, cell viability combined with cell death-associated molecules were used to analyze the effect of compounds on the level of TNF-α-induced injury in A549 lung epithelial cells. Cell injury was observed by microscopy; cell viability was analyzed by CCK-8 assay; and mRNA expression levels of injury-related indicators were detected by real-time quantitative PCR (Q-PCR) method. A549 cells were purchased from ATCC, CCK-8 kit was purchased from Meilunbio, item no. MA0218-3, and LPS was purchased from Sigma, item no. L2630.
(§1) Experimental methods: first, 5*10^4 cells/well A549 cells were placed in 12-well plates and incubated overnight. On the second day, 0.1% DMSO was added to the control cells, 10 ng/ml TNF-α as well as 0.1% DMSO was added to the model group, 10 ng/ml TNF-α as well as 1 μM of the compounds (oxy, 1, 2, tet, 3, 4, 6, 58) was added to the treatment group, and the 12-well plates were sterilized and incubated in a constant temperature incubator for 24 hours. Cellular mRNA was extracted by lysis using Trizol (Yisheng, 10606ES60) and detected by real-time quantitative PCR after reverse transcription.

[4] = test system: inflammatory factor mRNA in Raw 264.7 cells; assay: mRNA levels of inflammatory indicators in TNF-α-induced inflammation model of Raw264.7 cells (Q-PCR); type: cell-based; conditions: 10 ng/ml TNF-α, 1 μM compound, 16 hours
Protocol: (§2) In this embodiment, the effect of compounds on TNF-α-induced inflammation levels in Raw 264.7 cells was analyzed by cell viability combined with inflammatory factor expression levels; cell viability was analyzed by CCK-8 assay; and mRNA expression levels of inflammation-associated indicators were detected by real-time quantitative PCR (Q-PCR) method. Raw 264.7 cells were purchased from ATCC, CCK-8 kit was purchased from Meilunbio, item number MA0218-3, TNF-α was purchased from Merck, item no. GF314.
as §1, with “Raw 264.7” for “A549”, “(oxyacanthine hydrochloride (oxy),” for “(oxy,”, “tetrandrine (tet),” for “tet,”, “16” for “24”, “transcription, the primers are the same as in Table 2.” for “transcription.”

[5] = test system: A549 lung epithelial cells; assay: Anti TGF-β1-induced fibrosis assay in A549 lung epithelial cells (microscopy, Western Blot); type: cell-based; conditions: 10 ng/ml TGF-β1, 1 μM compound
Protocol: Cell injury was observed by microscopic observation; cell viability was analyzed by CCK-8 assay; and protein expression levels of fibrosis-related indicators were detected by Western Blot method. A549 cells were purchased from ATCC; CCK-8 kit was purchased from Meilunbio, item number MA0218-3; TGF-β1 was purchased from MCE, item number HY-P70543; primary antibodies: Collagen was purchased from ARG21965, item no. arigobio; α-smooth muscle actin was purchased from CST, item no. mAb #19245; VIMENTN was purchased from CST, item no. mAb #5741; GAPDH was purchased from Yeasen, item no. 30201ES20.
(§3) Experimental methods: first, 8000 cells/well A549 cells were placed in 96-well plates and incubated overnight. On the second day, 0.1% DMSO was added to the control cells, 10 ng/ml TGF-β1 as well as 0.1% DMSO was added to the model group, 10 ng/ml TGF-β1 as well as 1 μM of the compounds (oxy, 1, 2, tet, 3, 4, 6, 58) was added to the treatment group, and the 96-well plates were sterilized and incubated in a constant temperature incubator for 72 hours. Finally, cell injury and growth were observed using a microscope; the viability of the cells was detected by CCK-8 kit.

[6] = test system: IL-6, IL-1β, CXCL9 mRNA in Raw 264.7 cells; assay: mRNA levels of inflammatory indicators in LPS-induced inflammation model of Raw264.7 cells (Q-PCR); type: cell-based; conditions: 1 μg/ml LPS, 1 μM compound, 16 hours
Protocol: (§4) In this example, the effect of the compounds of the present invention on the inflammation level of the LPS-induced inflammation model of Raw 264.7 cells was analyzed by cell viability in combination with inflammatory factors; cell viability was analyzed by CCK-8 assay; and mRNA expression levels of inflammation-related indicators were detected by a real-time quantitative PCR (Q-PCR) method. Raw 264.7 cells were purchased from ATCC; CCK-8 kit was purchased from Meilunbio, item no. MA0218-3; LPS was purchased from Sigma, item no. L2630.
as §1, with “Raw 264.7” for “A549”, “1 μg/ml LPS” for “10 ng/ml TNF-α”, “(oxyacanthine hydrochloride (oxy),” for “(oxy,”, “tetrandrine (tet),” for “tet,”, “16” for “24”

Vero E6 cells = assay: Cytotoxicity test on Vero E6 cells (CCK8); type: cell-based; conditions: Vero E6 cells
Protocol: (§5) In this embodiment, the half toxicity concentration of each embodiment on Vero E6 cells was determined by CCK8 kit analysis (CC50).

ALM12 hepatocytes = assay: Anti H2O2-induced necrotic injury assay in ALM12 hepatocytes (microscopy, CCK-8); type: cell-based; conditions: 2 mM H2O2, 1 μM compound, 3 hours, microscope and CCK-8
Protocol: In this example, the effect of the compounds of the present invention on the level of necrotic injury induced by H2O2 in ALM12 hepatocytes was analyzed by microscopic morphological observations, cell viability in combination with cell death-associated molecules. Cell viability was analyzed by CCK-8 assay. ALM12 cells were cultured in 1640 medium (gibco, c11995500BT)+10% FBS (gibco, 10099141C) in a constant temperature incubator at 37° C., 5% CO2; the CCK-8 kit was purchased from Meilunbio, item no. MA0218-3; H2O2 was purchased from Sinopharm Chemical Reagent Co. item no. 10011208.
as §3, with “ALM12” for “A549”, “2 mM H2O2” for “10 ng/ml TGF-β1”, “3” for “72”

Raw 264.7 cells [7] = assay: Cell viability in LPS-induced inflammation model of Raw 264.7 cells (CCK-8); type: cell-based; conditions: 1 μg/ml LPS, 1 μM compound, 16 hours
Protocol: as §4
(§6) Experimental methods: first, 8000 cells/well Raw 264.7 cells were placed in 96-well plates and incubated overnight. On the second day, 0.1% DMSO was added to the control cells, 1 μg/ml LPS as well as 0.1% DMSO was added to the model group, 1 μg/ml LPS as well as 1 μM of the compounds (oxyacanthine hydrochloride (oxy), 1, 2, tetrandrine (tet), 3, 4, 6, 58) was added to the treatment group, and the 96-well plates were sterilized and incubated in a constant temperature incubator for 16 hours. Finally, the viability of the cells was detected using the CCK-8 kit.

Raw 264.7 cells [8] = assay: Cell viability in TNF-α induced inflammation model of Raw 264.7 cells (CCK-8); type: cell-based; conditions: 10 ng/ml TNF-α, 1 μM compound, 16 hours
Protocol: as §2
as §6, with “10 ng/ml TNF-α” for “1 μg/ml LPS”

[9] = test system: Th1/Th17 differentiation of CD4+T cells; assay: CD4+T cell in vitro differentiation assay (Th1 IFN-γ / Th17 IL-17A, flow cytometry); conditions: 10 μM, 72 h, IFN-γ/IL-17A by flow cytometry
Protocol: CD4^+T cell isolation: CD4^+T cells were isolated from the spleens of 7-8 week old C57BL/6 mice using the Mouse CD4^+T Cell Sorting Kit (Dynabeads® Untouched™ Mouse CD4 Cells Isolation Kit, Invitrogen, Catalog nos: 11415D).
In vitro differentiation of CD4^+T cells: the isolated CD4^+T cells were inoculated into 96-well plates while different concentrations of compounds were added, and then corresponding cytokines and antibodies were added: anti-CD28 (2 μg/ml), anti-CD3 (2 μg/ml), Anti-IL-4 (10 μg/ml), IL-12 (10 ng/ml), Anti-IFN-γ (10 μg/ml), anti-IL-4 (10 μg/ml), IL-6 (30 ng/ml), TGF-β1 (3 ng/ml), IL-10 (10 ng/ml), IL-23 (10 ng/ml), and TNF-α (10 ng/ml). Cells were cultured in 5% CO2 at 37° C. in a cell culture chamber for 72 h. Cells were collected, stained intracellularly, analyzed by flow cytometry, and tested for IFN-γ/IL-17A content to assess the effect of compounds on CD4^+T differentiation into Th1/Th17 in vitro.

[10] = Cytotoxicity test on Vero E6 cells (CCK8); type: cell-based; conditions: African green monkey; Vero E6 cells, CCK8 kit
Protocol: as §5

hERG potassium channel = target: T1, hERG potassium channel (Homo sapiens, UniProt Q12809); assay: hERG potassium channel whole-cell membrane clamp in CHO cells; type: cell-based; conditions: CHO cells stably expressing hERG, whole-cell membrane clamp
T1 construct: expressed in transfected cells
Protocol: Compounds were given for at least 1 min for each tested concentration, and at least 2 cells (n≥2) were tested per concentration.

HCoV OC43 virus = assay: Inhibition against HCoV OC43 virus replication; type: cell-based, human coronavirus HCoV OC43
[11] = Severe acute respiratory syndrome coronavirus 2, Vero C1008, Vero E6 cells, MOI 0.01, 24 h p.i., viral copy number by qRT-PCR

T1 sequence (Q12809 whole entry): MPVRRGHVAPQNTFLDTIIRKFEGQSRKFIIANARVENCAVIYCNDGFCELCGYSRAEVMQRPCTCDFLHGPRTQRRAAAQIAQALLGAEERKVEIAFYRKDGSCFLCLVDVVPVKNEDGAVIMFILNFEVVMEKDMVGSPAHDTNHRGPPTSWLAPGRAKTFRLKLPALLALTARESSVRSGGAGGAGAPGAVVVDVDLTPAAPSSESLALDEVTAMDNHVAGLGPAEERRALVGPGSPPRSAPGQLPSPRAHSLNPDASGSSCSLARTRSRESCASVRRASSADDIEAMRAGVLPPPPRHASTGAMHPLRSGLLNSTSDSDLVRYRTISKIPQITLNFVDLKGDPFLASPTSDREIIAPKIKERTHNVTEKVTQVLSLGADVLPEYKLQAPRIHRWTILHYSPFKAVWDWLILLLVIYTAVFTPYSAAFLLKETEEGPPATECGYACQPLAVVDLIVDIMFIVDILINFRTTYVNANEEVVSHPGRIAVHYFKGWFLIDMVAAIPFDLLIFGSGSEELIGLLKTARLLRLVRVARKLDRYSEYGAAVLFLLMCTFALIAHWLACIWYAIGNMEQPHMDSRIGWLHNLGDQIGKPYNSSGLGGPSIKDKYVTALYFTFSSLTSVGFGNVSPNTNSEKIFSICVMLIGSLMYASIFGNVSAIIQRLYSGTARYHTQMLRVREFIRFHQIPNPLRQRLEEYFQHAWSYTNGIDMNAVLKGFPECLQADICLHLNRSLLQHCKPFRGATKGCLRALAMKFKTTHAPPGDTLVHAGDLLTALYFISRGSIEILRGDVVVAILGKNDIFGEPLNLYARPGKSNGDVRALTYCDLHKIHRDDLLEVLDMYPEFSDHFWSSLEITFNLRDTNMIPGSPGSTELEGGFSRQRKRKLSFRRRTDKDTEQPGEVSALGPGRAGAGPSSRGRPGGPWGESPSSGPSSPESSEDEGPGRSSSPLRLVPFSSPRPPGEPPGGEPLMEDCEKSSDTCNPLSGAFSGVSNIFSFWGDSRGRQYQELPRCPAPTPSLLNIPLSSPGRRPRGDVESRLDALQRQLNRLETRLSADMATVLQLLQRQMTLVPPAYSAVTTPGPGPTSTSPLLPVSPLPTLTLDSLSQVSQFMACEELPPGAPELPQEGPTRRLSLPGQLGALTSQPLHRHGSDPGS
Sequence of novel coronavirus envelope protein (2-E) ion channel (P0DTC4 whole entry, looked up): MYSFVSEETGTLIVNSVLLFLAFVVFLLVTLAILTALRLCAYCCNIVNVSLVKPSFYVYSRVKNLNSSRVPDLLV

Molecule	EC50 [1]	IC50 [2]	inhibition of injury (damage) factors mRNA in TNF-α-induced A549 lung cell injury model [3]	inhibition of inflammatory factors (mRNA) in TNF-α-induced inflammation model [4]	alleviation of TGF-β1-induced fibrosis in A549 lung epithelial cells (Collagen1, α-SMA by WB) [5]	inhibition of inflammatory factors (IL-6, IL-1β, CXCL9 mRNA) in LPS-induced inflammation model [6]	IC50 (Vero E6 cells; CCK8 kit)	EC50 [1, 11]	alleviation of H2O2-induced ALM12 hepatocyte injury (ALM12 hepatocytes)	cell viability in LPS-induced inflammation model (Raw 264.7 cells [7])	cell viability in TNF-α-induced inflammation model (Raw 264.7 cells [8])	inhibitory effect on Th1/Th17 differentiation [9]	cytotoxicity on Vero E6 cells compared with oxyacanthine hydrochloride (Vero E6 cells)	IC50 [10]	IC50 (hERG potassium channel)	inhibition against human coronavirus HCoV OC43 (HCoV OC43 virus)	EC50 (HCoV OC43 virus; Betacoronavirus 1, OC43)
oxyacanthine hydrochloride [reference compound]	> 10 µM	> 100 µM	significantly inhibited	significant inhibition	partially alleviate fibrosis	significant inhibition	< 30 µM	–	–	–	–	–	–	–	–	–	–
COc1cc2c3cc1Oc1c(OC)c(OC)cc4c1[C@H](Cc1ccc(cc1)Oc1cc(ccc1C(=O)OCCOCCO)C[C@H]3N(C)CC2)N(C)CC4 [Compound 58]	–	–	significantly inhibited the damage factors	significantly inhibited inflammatory factors; also recorded: significant inhibition	–	significantly inhibited inflammatory factors; also recorded: significant inhibition	–	0.1 to 1 µM	significantly alleviated	did not affect cell viability	did not affect cell viability	strong inhibitory effect	weaker cytotoxicity than oxyacanthine hydrochloride	> 50 µM	16.5 µM	–	–
COC(=O)c1ccc2cc1Oc1ccc(cc1)C[C@H]1c3c(cc(OC)c(OC)c3Oc3cc4c(cc3OC)CCN(C)[C@@H]4C2)CCN1C [Compound 3]	–	< 10 µM	significantly inhibited the damage factors	significantly inhibited inflammatory factors; also recorded: significant inhibition	–	–	–	0.1 to 1 µM	significantly alleviated	did not affect cell viability	did not affect cell viability	strong inhibitory effect	weaker cytotoxicity than oxyacanthine hydrochloride	30 to 50 µM	7 µM	strong inhibition	2.3 µM
COc1cc2c3cc1Oc1c(OC)c(OC)cc4c1[C@H](Cc1ccc(cc1)Oc1cc(ccc1C(=O)NC1CC1)C[C@H]3N(C)CC2)N(C)CC4 [Compound 6]	–	–	–	significantly inhibited inflammatory factors; also recorded: significant inhibition	–	–	–	0.1 to 1 µM	significantly alleviated	did not affect cell viability	did not affect cell viability	strong inhibitory effect	weaker cytotoxicity than oxyacanthine hydrochloride	> 50 µM	8.9 µM	–	–
